What was measured:
[1] = tested on: imDAP cells; test: Specification of imDAP cells under BMP and TGF-β signaling inhibition (FACS FOXA2+/OTX2+, NKX2.1 qRT-PCR, LMX1A immunostaining); format: cell-based, human; settings: for specification of imDAP cells (FIGS. 13A-13D taken together): LDN193189 at 0.2 μM Day 0 to Day 6 and SB431542 at 50 μM Day 0 to Day 4 or Day 0 to Day 6; for specification of imDAP cells (FIGS. 12A-12C taken together): LDN193189 at 0.5 μM and SB431542 at 20 μM, among all combinations of concentrations tested; for specification of imDAP cells (FIGS. 11A-11C taken together): LDN193189 from D0 to D6 and SB431542 from D0 to D4, among all time windows tested
[2] = tested on: FOXA2+ imDAP cells; test: FACS analysis of FOXA2 expression of imDAP cells derived from hiPSCs; format: cell-based, human
Protocol: • 1. Individualize and collect cells by either Accutase or TrypLE treatment. • 2. Wash cells with 1 ml PBS and pellet cells at 250×g for […]. • 3. Remove supernatant, add ˜200 μl of 4% PFA, mix and fix for 10 min at RT. • 4. Pellet cells at 350×g for 5 min. • 5. Wash cells by 1 ml of FACS buffer and pellet cells at 350×g for 5 min. • 6. Remove supernatant, add 200 μl/tube of FACS buffer/0.1% Triton X, mix for 10 min at RT. • 7. Wash cells by 1 ml of FACS buffer and pellet cells at 350×g for 5 min. • 8. Remove supernatant, add 200 μl/tube of primary antibody diluted in FACS buffer, mix gently, and incubate for 30 min at RT. • 9. Wash cells by 1 ml of FACS buffer and pellet cells at 350×g for 5 min. • 10. Remove supernatant, and add 200 μl of secondary antibody diluted in FACS buffer, mix gently, and incubate for 30 min at RT. • 11. Wash cells by 1 ml of FACS buffer and pellet cells at 300×g for 5 min. • 12. Remove supernatant, add 200 μl of FACS buffer, and run samples on the flow cytometer.
On Day-1, EB formation (Stage 1) was carried out by dissociating hiPSCs (Nuwacell) to form a single-cell suspension and resuspending it in Epic medium (Nuwacell, #RP01001) containing 10 μM Blebbistatin (MCE, #HY-13441) in T25 flasks on a belly dancer and culturing the cells overnight. On Day 0, ventral midbrain floor plate differentiation (Stage 2) was initiated by changing the medium to a Stage 2-1 differentiation medium containing DMEM: F12/B27 (plus Vitamin A) (98:2, v/v) as basal medium and supplemented with 0.2 μM LDN193189, 10 μM SB431542, 1 μg/mL SHH C24II and 1.25 μM CHIR99021 and culturing the cells for 3 Days. From Day 3, the basal medium was changed to DMEM: F12/B27 (minus Vitamin A) (98:2, v/v), and CHIR concentration was boosted to 7.5 μM until Day 10 (Stage 2-2). SB431542 was withdrawn on Day 4, and SHH C24II was withdrawn on Day 8. From Day 10 (Stage 2-3), the medium was changed to a differentiation medium containing DMEM: F12/B27 (minus Vitamin A) (98:2, v/v) as basal medium and supplemented with 0.2 μM LDN193189 and 3 μM CHIR99021. During the cell culture, each of the differentiation media was replaced every day. On Day 16 (at the end of S2-3), EBs were dissociated for single cells and collected for analysis. The cells of each group were stained with FOXA2-PE antibody (BD, #561689), the percentage of FOXA2+ imDAP cells were analyzed by flow cytometry (FIG. 5). The above experiment was repeated for three times and the derived imDAP cells were named as Lot1, Lot2 and Lot3, respectively.
On Day-1, EB formation (Stage 1) was carried out by dissociating hiPSCs (Nuwacell) to form a single-cell suspension and resuspending it in Epic medium (Nuwacell, #RP01001) containing 10 μM Blebbistatin (MCE, #HY-13441) in T25 flasks on a belly dancer and culturing the cells overnight. On Day 0, ventral midbrain floor plate differentiation (Stage 2) was initiated by changing the medium to a Stage 2-1 differentiation medium containing DMEM: F12/B27 (plus Vitamin A) (98:2, v/v) as basal medium and supplemented with 0.2 μM LDN193189, 20 μM SB431542, 1.2 μM CHIR99021, and 1 μg/mL SHH C24II or the combination of SHH agonists including 500 ng/mL SHH C24II, 2 μM Purmorphamine and 10 nM SAG and culturing the cells for 3 days. From Day 3, the basal medium was changed to DMEM: F12/B27 (minus Vitamin A) (98:2, v/v). Cells were exposed to Boost-CHIR concentration of 7.5 μM starting from Day 4 to Day 6 (Stage 2-2), followed by a low CHIR concentration of 1.2 μM (Stage 2-3) until Day 10. […]

| Compound | specification of imDAP cells (FIGS. 13A-13D taken together) [1] | specification of imDAP cells (FIGS. 12A-12C taken together) [1] | specification of imDAP cells (FIGS. 11A-11C taken together) [1] | percentage of cells positive for FOXA2 ([2]; 4-step protocol, SHH agonist in medium Day 0 to Day 10, analysis Day 16) [%] | percentage of FOXA2+ cells ([2]; without Vitamin A throughout differentiation versus Vitamin A only D0-3 or D0-2) |
| --- | --- | --- | --- | --- | --- |
| c1ccc2c(-c3cnn4cc(-c5ccc(N6CCNCC6)cc5)cnc34)ccnc2c1 [LDN193189] | best results | best results | best results |  |  |
| NC(=O)c1ccc(-c2nc(-c3ccc4c(c3)OCO4)c(-c3ccccn3)[nH]2)cc1 [SB431542] | best results | best results | best results |  |  |
| SHH C24II: sonic hedgehog agonist polypeptide, SEQ ID NO: 2 |  |  |  | 85.71 |  |
| Vitamin A |  |  |  |  | higher percentage |
